Here are results for ten compounds from PubChem BioAssay (NCI).

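Growth conditions: 96-well plates. Treatment: test compound, 48 hours, 5 concentrations. Analysis: linear interpolation between bracketing concentrations; unreached endpoints set to highest concentration. The concentration for full growth arrest is given as TGI.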 A value given as a limit tells only on which side of the number the result lay.

Test systems include A498 renal; K-562 leukemia; OVCAR-3 ovarian; SN12C renal; U251 CNS; SK-MEL-28 melanoma; NCI-H23 lung; NCI/ADR-RES ovarian; 786-0 renal; SK-MEL-5 melanoma; NCI-H226 lung; BT-549 breast; TK-10 renal; CAKI-1 renal; HOP-92 NSCLC.
Holding throughout (assay): NCI anticancer screen, dose series, 48 h

As to `c1ccc([P+](c2ccccc2)(c2ccccc2)C2c3ccccc3-c3ccccc32)cc1`, the TGI in the experiment with A498 renal is 4.51 µM; in the experiment on K-562 leukemia it was above 100 µM; in the experiment on OVCAR-3 ovarian it was 5.68 µM; in the experiment with SN12C renal it was 7.29 µM; in the experiment with U251 CNS, 4.12 µM; in the experiment on SK-MEL-28 melanoma, 8.03 µM. The TGI with NCI-H23 lung was 5.38 µM; with NCI/ADR-RES ovarian, 41.9 µM; in the experiment with 786-0 renal it was 10.9 µM; in the experiment on SK-MEL-5 melanoma, 3.82 µM; with NCI-H226 lung it was 5.94 µM; in the experiment on BT-549 breast, 7.44 µM. Also, the TGI in the experiment with TK-10 renal amounted to 9.21 µM; with CAKI-1 renal, 69.1 µM.

For `COc1cc(/C=N/NC2=NCCCCN2)ccc1O`, the TGI in the experiment on A498 renal, in the experiment with K-562 leukemia, in the experiment with OVCAR-3 ovarian, in the experiment on SN12C renal, in the experiment with U251 CNS and with SK-MEL-28 melanoma was above 100 µM throughout. Also, the TGI in the experiment with NCI-H23 lung, with HOP-92 NSCLC, in the experiment on NCI/ADR-RES ovarian, in the experiment with 786-0 renal, with SK-MEL-5 melanoma and in the experiment on NCI-H226 lung was above 100 µM each time. Moreover, the TGI with BT-549 breast and in the experiment with TK-10 renal was above 100 µM each time.

As to `CN(CCCn1ccnc1[N+](=O)[O-])CCCn1ccnc1[N+](=O)[O-]`, the TGI in the experiment on A498 renal, in the experiment on K-562 leukemia, in the experiment with OVCAR-3 ovarian, in the experiment on SN12C renal, in the experiment with U251 CNS and with SK-MEL-28 melanoma was above 100 µM each time. Moreover, the TGI with NCI-H23 lung, in the experiment on NCI/ADR-RES ovarian, with 786-0 renal, in the experiment on SK-MEL-5 melanoma, in the experiment with NCI-H226 lung and with BT-549 breast was above 100 µM each time. For the same compound, the TGI in the experiment with TK-10 renal and in the experiment on CAKI-1 renal was above 100 µM in each case.

As for `CCCCC(=O)Nc1ccc2c(C)cc(-c3ccc(-c4cc(-c5ccc(C)cc5)cc(-c5ccc(-c6cc(C)c7ccc(NC(=O)CCCC)nc7n6)cc5)n4)cc3)nc2n1`, the TGI with A498 renal, with K-562 leukemia, in the experiment on OVCAR-3 ovarian, in the experiment with SN12C renal, in the experiment on U251 CNS and with SK-MEL-28 melanoma was above 100 µM throughout. Moreover, the TGI with NCI-H23 lung, in the experiment with HOP-92 NSCLC, in the experiment with NCI/ADR-RES ovarian, with 786-0 renal, with SK-MEL-5 melanoma and with BT-549 breast was above 100 µM in each case. Besides, the TGI with TK-10 renal and in the experiment on CAKI-1 renal was above 100 µM throughout.

`COc1ccc(/C(=N\Nc2ccccn2)c2ccccn2)cc1`: the TGI with A498 renal is above 100 µM; in the experiment with K-562 leukemia it was above 100 µM; with OVCAR-3 ovarian, 19.5 µM; in the experiment on SN12C renal, above 100 µM; in the experiment with U251 CNS, 17.1 µM; in the experiment with SK-MEL-28 melanoma, above 53 µM. Further, the TGI with NCI-H23 lung was 9.55 µM; with HOP-92 NSCLC, above 24.3 µM; in the experiment on NCI/ADR-RES ovarian it was 0.0475 µM; in the experiment with 786-0 renal it was 24.5 µM; in the experiment with SK-MEL-5 melanoma, 11.7 µM; in the experiment with BT-549 breast, above 100 µM. In the experiment on CAKI-1 renal, this compound returned a TGI of 22.6 µM.

With `S=C(N1CCN(c2ccccc2)CC1)N1CCN(c2ccccc2)CC1`, the TGI in the experiment on A498 renal, in the experiment with K-562 leukemia, in the experiment on OVCAR-3 ovarian, in the experiment on SN12C renal, with U251 CNS and in the experiment on SK-MEL-28 melanoma was above 100 µM in each case. In addition, the TGI with NCI-H23 lung, in the experiment on NCI/ADR-RES ovarian, in the experiment with 786-0 renal, with SK-MEL-5 melanoma, in the experiment with NCI-H226 lung and in the experiment on BT-549 breast was above 100 µM each time. Moreover, the TGI in the experiment with TK-10 renal and with CAKI-1 renal was above 100 µM each time.

With `CCCNC(=O)N1CC(CN2CCN(c3ccccc3)CC2)O/C1=N/C(=O)Nc1ccccc1` (configuration not stated), the TGI in the experiment on A498 renal, in the experiment with K-562 leukemia, in the experiment on SN12C renal, in the experiment on U251 CNS, in the experiment on SK-MEL-28 melanoma and in the experiment on NCI-H23 lung was above 100 µM throughout. Besides, the TGI in the experiment on HOP-92 NSCLC was above 100 µM; in the experiment with NCI/ADR-RES ovarian it was above 100 µM; in the experiment on 786-0 renal it was above 100 µM; with SK-MEL-5 melanoma it was 94.1 µM; in the experiment with BT-549 breast, above 100 µM; with TK-10 renal, above 100 µM. In addition, the TGI in the experiment on CAKI-1 renal was above 100 µM.

In the case of `Cc1nnc(Sc2nc(C#N)c(C#N)nc2Sc2nnc(C)s2)s1`, the TGI in the experiment with A498 renal was 53.3 µM; in the experiment with K-562 leukemia, 12.6 µM; with OVCAR-3 ovarian, 25.3 µM; with SN12C renal it was 26.4 µM; with U251 CNS, 47.5 µM; in the experiment with SK-MEL-28 melanoma, 47 µM. Moreover, the TGI with NCI-H23 lung is 49.8 µM; in the experiment with HOP-92 NSCLC, 7.65 µM; in the experiment on NCI/ADR-RES ovarian it was 51 µM; in the experiment on 786-0 renal it was 28.6 µM; in the experiment on SK-MEL-5 melanoma it was 46.2 µM; in the experiment with NCI-H226 lung, 64.1 µM. The TGI amounted to 27.7 µM in the experiment with BT-549 breast and 41.4 µM in the experiment on TK-10 renal.

Turning to `CC(C)[C@@H](C)[C@@]1(C)C[C@@H]1[C@@H](C)[C@H]1CC[C@@H]([C@@H]2CC=C3C[C@@H](O)CC[C@]3(C)C2=O)[C@]1(C)CCO`, the TGI stood at 28.7 µM in the experiment on A498 renal; 18 µM with K-562 leukemia; 25.6 µM with OVCAR-3 ovarian; 25.5 µM in the experiment on SN12C renal; 23 µM in the experiment with U251 CNS; 20.1 µM in the experiment on SK-MEL-28 melanoma. Moreover, the TGI in the experiment with NCI-H23 lung is 27.2 µM; with NCI/ADR-RES ovarian, 26.6 µM; in the experiment with 786-0 renal, 17.2 µM; in the experiment on SK-MEL-5 melanoma, 26.4 µM; in the experiment on NCI-H226 lung, 26.8 µM; in the experiment with BT-549 breast, 30.3 µM. Further, the figures for the TGI in the experiment on TK-10 renal and with CAKI-1 renal were 23.6 µM and 25.4 µM, respectively.

On to `S=C=NC1CCC(c2cc3ccccc3s2)(N2CCCCC2)CC1` (configuration not stated), for which the TGI is 5.1 µM in the experiment on A498 renal; 1.98 µM in the experiment with K-562 leukemia; 4.34 µM with OVCAR-3 ovarian; 3.77 µM in the experiment on SN12C renal; 3.39 µM in the experiment on SK-MEL-28 melanoma; 3.85 µM in the experiment on NCI-H23 lung. The TGI in the experiment with HOP-92 NSCLC came to 3.56 µM; with NCI/ADR-RES ovarian, 5.68 µM; with 786-0 renal, 3.26 µM; in the experiment on SK-MEL-5 melanoma it was 2.94 µM; in the experiment with BT-549 breast it was 6.55 µM; in the experiment with TK-10 renal, 3.45 µM. The compound also came in with a TGI in the experiment on CAKI-1 renal of 3.45 µM.
